Reference: article PMC12120022, “Discovery and chemical optimisation of a potent, Bi-cyclic antimicrobial inhibitor of Escherichia coli PBP3” (Communications Biology, 2025)
Where a SMILES comes first, the peptide text is derived from it.

Each compound was assayed against T1, EcPBP3 (Escherichia coli, UniProt P0AD68) (assay: Fluorescence polarisation competition assay with BOCILLIN-FL as tracer). Details: competition format; NB, non-binder (100 μM top concentration); read-out: IC50 (nM) by fluorescence polarisation with Bocillin FL as tracer, Geometric mean (Lower 95% CI of geo. Mean; Upper 95% CI of geo. Mean, n=number of values).
T1 construct: For assays, selections and SPR a construct with residues 60–588 which has the N-terminal domain, but not the transmembrane helix, was used; made in house
T1 sequence (P0AD68 60-588): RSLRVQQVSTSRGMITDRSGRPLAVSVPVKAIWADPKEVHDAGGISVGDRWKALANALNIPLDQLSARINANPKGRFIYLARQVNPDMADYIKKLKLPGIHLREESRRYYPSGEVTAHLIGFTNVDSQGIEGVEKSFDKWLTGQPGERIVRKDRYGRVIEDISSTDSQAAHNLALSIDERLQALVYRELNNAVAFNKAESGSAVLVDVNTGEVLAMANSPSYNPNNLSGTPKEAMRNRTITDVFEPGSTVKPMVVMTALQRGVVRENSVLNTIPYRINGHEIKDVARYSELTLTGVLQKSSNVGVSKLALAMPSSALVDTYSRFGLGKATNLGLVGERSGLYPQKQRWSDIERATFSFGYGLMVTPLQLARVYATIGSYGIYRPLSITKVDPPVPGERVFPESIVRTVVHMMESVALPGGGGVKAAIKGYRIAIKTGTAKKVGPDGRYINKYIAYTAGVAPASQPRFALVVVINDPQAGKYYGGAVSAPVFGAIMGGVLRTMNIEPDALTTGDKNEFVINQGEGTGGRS
Type: binding
Description: Binding of output peptides to EcPBP3 was evaluated using a fluorescence polarisation (FP) assay.
[…] 10 µL of protein (9.4 nM) was mixed with either 5 µL of peptide or 5 µL of buffer and then the assay was initiated by the addition of 10 µL of tracer (1 nM) (final volume 25 µL), in a black 384 low bind, low volume plate (Corning). The buffer was 10 mM HEPES (Sigma), 2% (v/v) glycerol (Sigma), 300 mM NaCl (Sigma), adjusted to pH 8. The plate was incubated for 1 h at 25 °C and then read in a PHERAstar FS (BMG) using with an “FP 485 520 520” optic module (excitation 485 nm, emission 520 nm). The gain was determined immediately prior to the read on a tracer-only well.
Dotmatics (Dotmatics) workflows performing the above calculations were used to process the data. Values quoted are the geometric means of at least 2 repeats.

Structure (SMILES)	IC50
CC(C)C[C@@H]1NC(=O)CNC(=O)[C@@H]2CCCN2C(=O)[C@H](Cc2ccc(O)cc2)NC(=O)[C@H](C)NC(=O)[C@H](Cc2ccc(O)cc2)NC(=O)[C@@H]2CCCN2C(=O)[C@@H](NC(=O)[C@H](C)N)CSCCC(=O)N2CN3CN(C2)C(=O)CCSC[C@H](NC1=O)C(=O)N[C@@H](CC(C)C)C(=O)N[C@@H](CCC(=O)O)C(=O)N[C@@H](Cc1ccccc1)C(=O)N[C@@H](CCCCN)C(=O)N[C@@H](CO)C(=O)N[C@H](C(=O)N[C@@H](C)C(N)=O)CSCCC3=O [Peptide 11] (HELM PEPTIDE1{A.C.P.Y.A.Y.P.G.L.C.L.E.F.K.S.C.A.[am]}|CHEM1{[O=C(CC[*:1])N1CN(C(=O)CC[*:2])CN(C(=O)CC[*:3])C1]}$PEPTIDE1,CHEM1,2:R3-1:R1|PEPTIDE1,CHEM1,10:R3-1:R2|PEPTIDE1,CHEM1,16:R3-1:R3$$$V2.0)	> 100000 nM
CC[C@H](C)[C@@H]1NC(=O)[C@H]([C@@H](C)O)NC(=O)[C@H](CC(=O)O)NC(=O)[C@H](C)NC(=O)[C@@H](NC(=O)[C@H](C)N)CSCCC(=O)N2CN3CN(C2)C(=O)CCSC[C@@H](C(=O)N[C@@H](C)C(N)=O)NC(=O)[C@@H]2CCCN2C(=O)[C@H](Cc2ccc(O)cc2)NC(=O)[C@@H]2CCCN2C(=O)[C@H](C(C)C)NC(=O)[C@H](CSCCC3=O)NC(=O)[C@H]([C@@H](C)O)NC(=O)[C@H](CC(C)C)NC(=O)[C@H](CO)NC(=O)[C@H](Cc2ccc(O)cc2)NC1=O [Peptide 6] (HELM PEPTIDE1{A.C.A.D.T.I.Y.S.L.T.C.V.P.Y.P.C.A.[am]}|CHEM1{[O=C(CC[*:1])N1CN(C(=O)CC[*:2])CN(C(=O)CC[*:3])C1]}$PEPTIDE1,CHEM1,2:R3-1:R1|PEPTIDE1,CHEM1,11:R3-1:R2|PEPTIDE1,CHEM1,16:R3-1:R3$$$V2.0)	> 100000 nM
CC[C@H](C)[C@@H]1NC(=O)[C@@H](NC(=O)[C@H](C)N)CSCCC(=O)N2CN3CN(C2)C(=O)CCSC[C@H](NC(=O)[C@H](CCCNC(=N)N)NC(=O)[C@H](CCC(=O)O)NC(=O)[C@H](CCCNC(=N)N)NC1=O)C(=O)N[C@@H](Cc1c[nH]c2ccccc12)C(=O)N[C@@H](CC(=O)O)C(=O)N[C@@H](CC(C)C)C(=O)N[C@@H](CCCCN)C(=O)N[C@@H](CCC(=O)O)C(=O)N[C@@H](CC(N)=O)C(=O)N[C@@H](CC(=O)O)C(=O)N[C@@H](Cc1c[nH]c2ccccc12)C(=O)N[C@H](C(=O)N[C@@H](C)C(N)=O)CSCCC3=O [Peptide 14] (HELM PEPTIDE1{A.C.I.R.E.R.C.W.D.L.K.E.N.D.W.C.A.[am]}|CHEM1{[O=C(CC[*:1])N1CN(C(=O)CC[*:2])CN(C(=O)CC[*:3])C1]}$PEPTIDE1,CHEM1,2:R3-1:R1|PEPTIDE1,CHEM1,7:R3-1:R2|PEPTIDE1,CHEM1,16:R3-1:R3$$$V2.0)	> 100000 nM
CC(C)C[C@@H]1NC(=O)[C@H](C)NC(=O)[C@@H]2CSCCC(=O)N3CN(CN(C3)C(=O)CCSC[C@H](NC(=O)[C@H](C)N)C(=O)N3CCC[C@H]3C(=O)N[C@@H](CCC(=O)O)C(=O)N[C@@H](CCCNC(=N)N)C(=O)N[C@@H](CC(C)C)C(=O)N2)C(=O)CCSC[C@@H](C(=O)N[C@@H](C)C(N)=O)NC(=O)[C@H](CCCNC(=N)N)NC(=O)[C@H](CC(C)C)NC(=O)[C@H]([C@@H](C)O)NC(=O)[C@@H]2CCCN2C(=O)[C@H](CC(C)C)NC(=O)CNC1=O [Peptide 12] (HELM PEPTIDE1{A.C.P.E.R.L.C.A.L.G.L.P.T.L.R.C.A.[am]}|CHEM1{[O=C(CC[*:1])N1CN(C(=O)CC[*:2])CN(C(=O)CC[*:3])C1]}$PEPTIDE1,CHEM1,2:R3-1:R1|PEPTIDE1,CHEM1,7:R3-1:R2|PEPTIDE1,CHEM1,16:R3-1:R3$$$V2.0)	> 100000 nM
